{
  "source": "patent US7947661B2",
  "about": "“Compounds for the treatment of marihuana dependence, withdrawal, and usage” (priority 2004, dated 2011)",
  "key": {"[1]": {"conditions": "cited from earlier work"}, "[2]": {"conditions": "cited from earlier work", "remark": "listed apart in the source"}, "[3]": {"tested_on": "cocaine-dependent subjects", "experiment": "Weekly marihuana use from daily diaries, citicoline vs placebo for 8 weeks", "format": "in vivo, human", "conditions": "citicoline treatment weeks 3-10, not dependent on cannabis", "experimental": "FIG. 1 is a graph of a time course of weekly marihuana use in citicoline- and placebo-treated cocaine-dependent subjects. Subjects were treated with either citicoline or placebo for 8 weeks and then asked to keep track of their drug use patterns via a daily diary. Follow up weeks were conducted under a no drug condition.\nCompared to placebo treatment, marihuana use was reduced during citicoline treatment (weeks 3-10) as reported using the daily diaries. […] There is a group difference at baseline; this difference occurred because subjects were not matched for marihuana use in this study, and these subjects were not dependent on cannabis."}, "cocaine dependent person": {"tested_on": "cocaine dependent person", "experiment": "Wrist accelerometer (ActiWatch) sleep wake activity and marihuana cigarettes in a representative subject", "format": "in vivo, human", "conditions": "500 mg twice daily citicoline, days 10-14 vs baseline", "experimental": "FIG. 2 is a graph of activity of a representative cocaine dependent person two weeks prior to (Baseline) and two weeks after (Citicoline) treatment with citicoline. […] Marihuana cigarettes are depicted by the arrows. Each strip recording is a 24 hour period of consecutive days. Activity was determined by use of an accelerometer worn on the subject'[…] Score). Data in FIG. 2 also show a decrease in the number of marihuana cigarettes smoked and a more normalized, diurnal sleep pattern after treatment with citicoline. Subjects were given either placebo or 500 mg, twice daily of citicoline. […] The subject's binge use of marihuana (arrows on second day) is clearly defined. The bottom 4 tracings of FIG. 2 show the same subject on days 10-14 of citicoline treatment. […] This pattern continued throughout the 8 weeks of treatment for this subject."}, "[4]": {"conditions": "cited from earlier work", "remark": "listed apart in the source"}},
  "data": [
    {"smiles": "C[N+](C)(C)CCOP(=O)(O)OP(=O)([O-])OC[C@H]1O[C@@H](n2ccc(N)nc2=O)[C@H](O)[C@@H]1O", "note": "[CDP-choline, cytidine 5′-diphosphocholine]", "values": [
      {"measurement": "reported overdoses", "setting": "[1]; in vivo", "value": "no reported cases of overdoses"},
      {"measurement": "toxicity symptoms on ingestion of large amounts", "setting": "[1]; preclinical studies", "value": "common cholinergic symptoms (salivation, lacrimation, urination, defecation, and vomiting)"},
      {"measurement": "conversion into circulating metabolites", "setting": "[2]; administered either orally or intravenously", "value": "rapidly converted into the two major circulating metabolites, choline and cytidine"},
      {"measurement": "CDP-choline and/or its metabolites absorbed", "setting": "[2]; orally administered", "value": "more than 99%"},
      {"measurement": "excreted in feces", "setting": "[2]; orally administered", "value": "less than 1%"},
      {"measurement": "excretion via lung", "setting": "[2]; share of dose", "value": 12.9, "unit": "%"},
      {"measurement": "excretion via urine", "setting": "[2]; share of dose", "value": 2.4, "unit": "%"},
      {"measurement": "rest of the dose metabolized and retained in tissues", "setting": "[2]; share of dose", "value": 83.9, "unit": "%"},
      {"measurement": "marihuana use (cigarettes per week, daily diaries) compared to placebo", "setting": "[3]", "value": "reduced"},
      {"measurement": "number of marihuana cigarettes smoked", "setting": "cocaine dependent person", "value": "decrease"},
      {"measurement": "sleep wake profile (accelerometer activity)", "setting": "cocaine dependent person; continued throughout 8 weeks", "value": "more normalized diurnal pattern of sleeping at night and became more active during the day"},
      {"measurement": "tolerability in mammals", "setting": "[4]", "value": "well tolerated"}
    ]},
    {"smiles": "CN(CC(=O)O)C(=N)N", "note": "[Creatine, creatine]", "values": [
      {"measurement": "tolerability in humans", "setting": "[4]", "value": "well tolerated at relatively high doses"}
    ]},
    {"smiles": "CC(=O)OC[C@H]1O[C@@H](n2ccc(=O)[nH]c2=O)[C@H](OC(C)=O)[C@@H]1OC(C)=O", "note": "[triacetyl uridine]", "values": [
      {"measurement": "tolerability in mammals", "setting": "[4]", "value": "well tolerated"}
    ]},
    {"smiles": "O=c1ccn([C@@H]2O[C@H](CO)[C@@H](O)[C@H]2O)c(=O)[nH]1", "note": "[uridine]", "values": [
      {"measurement": "tolerability in humans", "setting": "[4]", "value": "well tolerated"},
      {"measurement": "tolerability in mammals", "setting": "[4]", "value": "well tolerated"}
    ]}
  ]
}
